{"source": "patent US5674875A", "about": "“Method of blocking human 5-hydroxytryptamine-2 receptors” (priority 1995, dated 1997)", "key": {"rat 5-HT2 receptor": {"target": "T1, rat 5-HT2 receptor (Rattus norvegicus, UniProt P14842)", "T1 construct": "from tissue; host or cells: brain tissue of male Sprague-Dawley rats", "T1 sequence (P14842 whole entry)": "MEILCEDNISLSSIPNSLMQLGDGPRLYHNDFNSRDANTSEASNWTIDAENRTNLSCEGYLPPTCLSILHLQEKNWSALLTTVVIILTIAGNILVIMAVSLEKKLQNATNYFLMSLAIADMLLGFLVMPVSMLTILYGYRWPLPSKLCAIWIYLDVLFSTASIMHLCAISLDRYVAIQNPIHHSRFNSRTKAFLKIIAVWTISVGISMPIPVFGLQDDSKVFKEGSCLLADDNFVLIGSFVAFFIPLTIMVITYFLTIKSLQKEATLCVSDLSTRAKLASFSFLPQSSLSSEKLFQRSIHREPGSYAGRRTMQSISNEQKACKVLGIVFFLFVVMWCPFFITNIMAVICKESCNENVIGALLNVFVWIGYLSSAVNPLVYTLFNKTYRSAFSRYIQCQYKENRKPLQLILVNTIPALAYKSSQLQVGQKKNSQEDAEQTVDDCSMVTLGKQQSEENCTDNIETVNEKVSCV", "type": "binding", "conditions": "brain tissue of male Sprague-Dawley rats; performed in triplicate", "description": "This is quite surprising in light of the N-substituted ergolines having a much greater affinity for the 5-HT2 receptors in rats compared to the corresponding N-unsubstituted ergolines."}, "[1]": {"target": "T2, cloned human 5-HT2 receptor (Homo sapiens, UniProt P28223)", "T2 construct": "expressed in transfected cells", "T2 sequence (P28223 whole entry)": "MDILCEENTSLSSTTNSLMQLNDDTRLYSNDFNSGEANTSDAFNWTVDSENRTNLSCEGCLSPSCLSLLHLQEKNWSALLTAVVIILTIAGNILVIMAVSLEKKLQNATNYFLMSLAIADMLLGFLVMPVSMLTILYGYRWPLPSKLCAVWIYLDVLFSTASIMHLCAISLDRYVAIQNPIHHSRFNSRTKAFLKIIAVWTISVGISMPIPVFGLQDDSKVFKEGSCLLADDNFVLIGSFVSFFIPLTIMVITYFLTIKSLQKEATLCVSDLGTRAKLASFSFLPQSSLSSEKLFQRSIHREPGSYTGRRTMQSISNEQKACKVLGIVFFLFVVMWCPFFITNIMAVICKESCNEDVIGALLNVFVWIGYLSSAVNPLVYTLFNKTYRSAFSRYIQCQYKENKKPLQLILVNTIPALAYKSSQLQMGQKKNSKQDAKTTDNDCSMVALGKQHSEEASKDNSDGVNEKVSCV", "type": "binding", "conditions": "cells containing cloned human 5-HT2 receptor; performed in triplicate"}}, "data": [{"smiles": "CC(C)n1cc2c3c(cccc31)C1CC(C(=O)NC3CC3O)CN(C)C1C2", "note": "(centres unmarked) [drawing 3 NH 2-hydroxycyclopropyl]", "values": [{"measurement": "IC50", "setting": "rat 5-HT2 receptor", "value": 5.8, "unit": "nM"}, {"measurement": "IC50", "setting": "[1]", "value": 27.7, "unit": "nM"}]}]}
